According to patent US9284306B2, “(R)-Nifuratel, its use for the treatment of infections and synthesis of (R) and (S)-Nifuratel” (POLICHEM SA, priority 2012, dated 2016):
≈ marks a conversion by molar mass, not a printed value. Like-named read-outs stand apart in the source and are kept apart here.

Assays:
[1] = tested on: Atopobium vaginae; experiment: MIC, agar dilution; assay type: cell-based; conditions: Fannyhessea vaginae
Procedure: (§1) Micrococcus pyogenes (ATCC 11631), Bacillus subtilis (ATCC 11774), Lactobacillus iners (ATCC 55195), Escherichia coli (ATCC 11775), Proteus mirabilis (ATCC 14153), Klebsiella pneumoniae (ATCC 10031), Shigella sonnei (ATCC 11060), Neisseria gonorrhoeae (ATCC 19424), Salmonella typhimurium (ATCC 14028) Salmonella paratyphi B (ATCC 10719), Helicobacter pylori (ATCC 43504) and several strains of Atopobium vaginae and Gardnerella vaginalis.
(§2) Strains were prepared from freeze-dried pellets. An isolation of the suspensions (to test the strains purity) and a strains massive growth were made by streaking microbial suspensions on agar media. The bacterial colonies on agar plates were collected with 3-5 mL of specific liquid medium+15% glycerol and then the aliquots were frozen at −80° C.
(§3) Compounds Minimal Inhibitory Concentration (MIC) was determined through broth micro-dilution susceptibility testing with a method developed following the National Committee for Clinical Laboratory Standards (CLSI) M07-A8 and M11-A7 references. Assays were carried out in specific media (Table 3). The tests were performed either following the broth microdilution assay or the agar dilution assay. Compounds stock solutions were made at 12.8 mg/mL in DMSO 100%. A series of twofold dilutions were then prepared using the strain specific broth. Final concentrations were from 0.125 μg/mL to 64 μg/mL at 1% DMSO. MIC is defined as the lowest concentration of antibacterial agent which prevent any visible growth.

[2] = tested on: Gardnerella vaginalis; experiment: MIC, agar dilution; assay type: cell-based
Procedure: as §1, §2, §3

[3] = tested on: Micrococcus pyogenes ATCC 11631; experiment: MIC, broth microdilution; assay type: cell-based; conditions: Staphylococcus aureus, ATCC11631
Procedure: as §1, §2, §3

[4] = tested on: Bacillus subtilis; experiment: MIC, broth microdilution; assay type: cell-based
Procedure: as §1, §2, §3

[5] = tested on: Klebsiella pneumonia ATCC 10031; experiment: MIC, broth microdilution; assay type: cell-based; conditions: Klebsiella pneumoniae, ATCC10031
Procedure: as §1, §2, §3

[6] = tested on: Salmonella paratyphi B ATCC 10719; experiment: MIC, broth microdilution; assay type: cell-based; conditions: Salmonella enterica
Procedure: as §1, §2, §3

[7] = tested on: Neisseria gonorrhoeae ATCC 19424; experiment: MIC, broth microdilution; assay type: cell-based; conditions: ATCC19424
Procedure: as §1, §2, §3

[8] = tested on: Shigella sonnei ATCC 11060; experiment: MIC, broth microdilution; assay type: cell-based; conditions: ATCC11060
Procedure: as §1, §2, §3

[9] = tested on: Proteus mirabilis ATCC 14153; experiment: MIC, broth microdilution; assay type: cell-based; conditions: ATCC14153
Procedure: as §1, §2, §3

[10] = tested on: Salmonella typhimurium ATCC 14028; experiment: MIC, broth microdilution; assay type: cell-based; conditions: Salmonella enterica
Procedure: as §1, §2, §3

[11] = tested on: Lactobacillus iners ATCC 55195; experiment: MIC, broth microdilution; assay type: cell-based; conditions: ATCC55195
Procedure: as §1, §2, §3

[12] = tested on: Helicobacter pylori ATCC 43504; experiment: MIC, broth microdilution; assay type: cell-based; conditions: Helicobacter pylori, ATCC43504
Procedure: as §1, §2, §3

[13] = tested on: Escherichia coli ATCC 11775; experiment: MIC, broth microdilution; assay type: cell-based; conditions: ATCC11775
Procedure: as §1, §2, §3

[14] = in vivo; conditions: male, rat, iv, 2 mg/kg
[15] = in vivo; conditions: male, rat, po, 15 mg/kg
[16] = rat, in vivo
Procedure: The pharmacokinetic profile of S- and R-nifuratel was assessed after intravenous administration (2 mg/kg) and oral gavage (15 mg/kg) in male rats.

[17] = tested on: Staphylococcus aureus (MRSA); experiment: MIC, broth microdilution; assay type: cell-based
Procedure: as §2, §3

[18] = tested on: Gram positive and negative organisms; experiment: Antimicrobial activity (MIC), overall comparison; assay type: cell-based; conditions: Tables 3 and 4, overall
Text: as §1, §3

CSCC1CN(/N=C/c2ccc([N+](=O)[O-])o2)C(=O)O1 (racemic) [Nifuratel racemate, Nifuratel]
MIC ([1]; CCUG38953): 0.125 µg/mL (≈ 0.438 µM)
MIC ([1]; CCUG39382): 0.25 µg/mL (≈ 0.876 µM)
MIC ([1]; CCUG42099): 0.5 µg/mL (≈ 1.75 µM)
MIC ([1]; CCUG43049): 0.25 µg/mL (≈ 0.876 µM)
MIC ([1]; CCUG44061): 0.5 µg/mL (≈ 1.75 µM)
MIC ([1]; CCUG44156): 0.5 µg/mL (≈ 1.75 µM)
MIC ([1]; CCUG48515): 1 µg/mL (≈ 3.51 µM)
MIC ([1]; CCUG55226): 1 µg/mL (≈ 3.51 µM)
MIC ([1]; CCUG55227): 0.25 µg/mL (≈ 0.876 µM)
MIC ([2]; ATCC14018, agar dilution, Gardnerella vaginalis ATCC 14018): 2 µg/mL (≈ 7.01 µM)
MIC ([2]; agar dilution, Gardnerella vaginalis C2): 8 µg/mL (≈ 28 µM)
MIC ([2]; agar dilution, Gardnerella vaginalis D2): 4 µg/mL (≈ 14 µM)
MIC ([2]; agar dilution, Gardnerella vaginalis E2): 2 µg/mL (≈ 7.01 µM)
MIC ([2]; agar dilution, Gardnerella vaginalis G2): 2 µg/mL (≈ 7.01 µM)
MIC ([2]; agar dilution, Gardnerella vaginalis H2): 1 µg/mL (≈ 3.51 µM)
MIC ([2]; agar dilution, Gardnerella vaginalis J2): 2 µg/mL (≈ 7.01 µM)
MIC ([2]; agar dilution, Gardnerella vaginalis K2): 4 µg/mL (≈ 14 µM)
MIC [3]: 1 µg/mL (≈ 3.51 µM)
MIC [4]: 0.5 µg/mL (≈ 1.75 µM)
MIC [5]: 2 µg/mL (≈ 7.01 µM)
MIC [6]: 2 µg/mL (≈ 7.01 µM)
MIC ([7]; Neisseria gonorrhoeae): 0.25 µg/mL (≈ 0.876 µM)
MIC [8]: 1 µg/mL (≈ 3.51 µM)
MIC ([9]; Proteus mirabilis): 8 µg/mL (≈ 28 µM)
MIC [10]: 4 µg/mL (≈ 14 µM)
MIC ([11]; Lactobacillus iners): 16 µg/mL (≈ 56.1 µM)
MIC [12]: 0.125 µg/mL (≈ 0.438 µM)
MIC ([13]; Escherichia coli): 1 µg/mL (≈ 3.51 µM)
AUC(0-inf) [14]: 125 ng·h/mL
AUC(0-t) [14]: 122 ng·h/mL
Clast [14]: 5 ng/mL
Cmax [14]: 555 ng/mL
MRT [14]: 13 min
Tlast [14]: 120 min
Tmax [14]: 2 min
VSR [14]: 4.5 L/kg
clearance [14]: 267 mL/min/kg
half-life [14]: 24 min
AUC(0-t) [15]: 20.3 ng·h/mL
Clast [15]: 3 ng/mL
Cmax [15]: 8 ng/mL
MRT [15]: 1.82 h
Tlast [15]: 240 min
Tmax [15]: 30 min
half-life [15]: 182 min

CSC[C@H]1CN(/N=C/c2ccc([N+](=O)[O-])o2)C(=O)O1 [R-nifuratel, (R)-Nifuratel]
MIC ([1]; CCUG38953, agar dilution, Atopobium vaginae CCUG 38953, read-out: MIC): 0.25 µg/mL (≈ 0.876 µM)
MIC ([1]; CCUG39382): 0.125 µg/mL (≈ 0.438 µM)
MIC ([1]; CCUG42099, agar dilution, Atopobium vaginae CCUG 42099, read-out: MIC): 0.25 µg/mL (≈ 0.876 µM)
MIC ([1]; CCUG43049, agar dilution, Atopobium vaginae CCUG 43049, read-out: MIC): 0.25 µg/mL (≈ 0.876 µM)
MIC ([1]; CCUG44061, agar dilution, Atopobium vaginae CCUG 44061, read-out: MIC): 0.25 µg/mL (≈ 0.876 µM)
MIC ([1]; CCUG44156, agar dilution, Atopobium vaginae CCUG 44156, read-out: MIC): 0.25 µg/mL (≈ 0.876 µM)
MIC ([1]; CCUG48515, agar dilution, Atopobium vaginae CCUG 48515, read-out: MIC): 0.5 µg/mL (≈ 1.75 µM)
MIC ([1]; CCUG55226, agar dilution, Atopobium vaginae CCUG 55226, read-out: MIC): 1 µg/mL (≈ 3.51 µM)
MIC ([1]; CCUG55227, agar dilution, Atopobium vaginae CCUG 55227, read-out: MIC): 0.25 µg/mL (≈ 0.876 µM)
MIC ([2]; ATCC14018, agar dilution, Gardnerella vaginalis ATCC 14018, read-out: MIC): 1 µg/mL (≈ 3.51 µM)
MIC ([2]; agar dilution, Gardnerella vaginalis C2, read-out: MIC): 4 µg/mL (≈ 14 µM)
MIC ([2]; agar dilution, Gardnerella vaginalis D2, read-out: MIC): 4 µg/mL (≈ 14 µM)
MIC ([2]; agar dilution, Gardnerella vaginalis E2, read-out: MIC): 1 µg/mL (≈ 3.51 µM)
MIC ([2]; agar dilution, Gardnerella vaginalis G2, read-out: MIC): 2 µg/mL (≈ 7.01 µM)
MIC ([2]; agar dilution, Gardnerella vaginalis H2, read-out: MIC): 1 µg/mL (≈ 3.51 µM)
MIC ([2]; agar dilution, Gardnerella vaginalis J2, read-out: MIC): 2 µg/mL (≈ 7.01 µM)
MIC ([2]; agar dilution, Gardnerella vaginalis K2, read-out: MIC): 4 µg/mL (≈ 14 µM)
MIC ([3]; broth microdilution, Micrococcus pyogenes ATCC 11631, read-out: MIC): 2 µg/mL (≈ 7.01 µM)
MIC ([4]; broth microdilution, read-out: MIC): 0.25 µg/mL (≈ 0.876 µM)
MIC ([5]; broth microdilution, Klebsiella pneumonia ATCC 10031, read-out: MIC): 2 µg/mL (≈ 7.01 µM)
MIC [6]: 1 µg/mL (≈ 3.51 µM)
MIC ([7]; broth microdilution, Neisseria gonorrhoeae ATCC 19424, read-out: MIC): 0.25 µg/mL (≈ 0.876 µM)
MIC [8]: 1 µg/mL (≈ 3.51 µM)
MIC ([9]; broth microdilution, Proteus mirabilis ATCC 14153, read-out: MIC): 8 µg/mL (≈ 28 µM)
MIC ([10]; broth microdilution, Salmonella typhimurium ATCC 14028, read-out: MIC): 2 µg/mL (≈ 7.01 µM)
MIC ([11]; broth microdilution, Lactobacillus iners ATCC 55195, read-out: MIC): 16 µg/mL (≈ 56.1 µM)
MIC [12]: 0.125 µg/mL (≈ 0.438 µM)
MIC ([13]; broth microdilution, Escherichia coli ATCC 11775, read-out: MIC): 1 µg/mL (≈ 3.51 µM)
AUC(0-inf) [14]: 750 ng·h/mL
AUC(0-t) [14]: 740 ng·h/mL
Clast [14]: 43 ng/mL
Cmax [14]: 4190 ng/mL
MRT [14]: 7 min
Tlast [14]: 75 min
Tmax [14]: 2 min
VSR [14]: 0.4 L/kg
clearance [14]: 49 mL/min/kg
half-life [14]: 11 min
overall pharmacokinetic profile [16]: best pharmacokinetic profile
MIC [17]: 2 µg/mL (≈ 7.01 µM)
antimicrobial profile compared to nifuratel racemate or (S)-nifuratel [18]: better antimicrobial profile
AUC(0-t) [15]: 66.8 ng·h/mL
Clast [15]: 3 ng/mL
Cmax [15]: 34 ng/mL
MRT [15]: 82.4 h
Tlast [15]: 480 min
Tmax [15]: 5 min
half-life [15]: 236 min
